Data published in ChEMBL document CHEMBL4732128, “Methylsulfanylpyridine based diheteroaryl isocombretastatin analogs as potent anti-proliferative agents” (Eur J Med Chem, 2021).
In brackets after ≈: the same amount, converted by molar mass.

Key:
[1] = Aqueous solubility of the compound in pH 7.0 phosphate buffer at 2 mg incubated for 72 hrs by shake flask method; type: physicochemical
[2] = Inhibition of bovine brain tubulin polymerization incubated for 30 mins by turbidimetric assay; type: tissue-based, Bos taurus
HeLa = test: Antiproliferative activity against human HeLa cells assessed as inhibition of cell growth after 72 hrs by XTT assay; type: functional, cell-based
HL-60 = test: Antiproliferative activity against human HL-60 cells assessed as inhibition of cell growth after 72 hrs by XTT assay; type: functional, cell-based; settings: HL-60, 72 h
HT-29 = test: Antiproliferative activity against human HT-29 cells assessed as inhibition of cell growth after 72 hrs by XTT assay; type: functional, cell-based; settings: HT-29, 72 h

Structure (SMILES) | solubility thermodynamic at 72 h [1] [µg/mL] | IC50 [2] [µM] | IC50 (HeLa) [µM] | IC50 (HL-60) [µM] | IC50 (HT-29) [µM]
COc1ccc(C(=O)c2cc(SC)nc(SC)c2)cc1 | 1.5 (≈ 4.91 µM) | > 5 | ≥ 10 | ≥ 10 | ≥ 10
CSc1cc(C(=O)c2ccc3c(c2)c(C=O)cn3C)cc(Cl)n1 | – | > 5 | ≥ 0.01 | ≥ 0.01 | ≥ 0.01
C=C(c1cc(Cl)nc(SC)c1)c1ccc2c(c1)c(C(=O)O)cn2C | – | > 5 | ≥ 0.01 | ≥ 0.01 | ≥ 0.01
COc1ccc(S(=O)(=O)Nc2cccnc2Nc2ccc(O)cc2)cc1 [ABT-751] | – | 4 | 0.388 | – | 0.514
C=C(c1cc(SC)nc(SC)c1)c1ccc2ccccc2c1 | 1.9 (≈ 5.87 µM) | > 5 | ≥ 0.01 | ≥ 0.01 | ≥ 0.01
C=C(c1cc(Cl)nc(SC)c1)c1ccc2c(c1)c(C#N)cn2C | 3.2 (≈ 9.42 µM) | 0.6 | 0.158 | 0.074 | 0.278
CSc1cc(C(O)c2ccc3c(ccn3C)c2)cc(SC)n1 (stereo unspecified) | – | > 5 | ≥ 10 | ≥ 10 | ≥ 0.01
COc1ccc(/C=C\c2cc(OC)c(OC)c(OC)c2)cc1O [COMBRETASTATIN A4] | – | 2.8 | – | – | 0.305
CSc1cc(C(O)c2ccc(N(C)C)cc2)cc(SC)n1 (stereo unspecified) | – | > 5 | ≥ 0.01 | ≥ 0.01 | ≥ 0.01
COc1ccc(C(=NO)c2cc(SC)nc(SC)c2)cc1 | – | 3 | 0.457 | 0.299 | 0.292
C=C(c1ccc(OC)cc1)c1cc(SC)nc(SC)c1 | 35.7 (≈ 118 µM) | 2 | 0.399 | 0.306 | 0.55
CSc1cc(C(=O)c2ccc3ccccc3c2)cc(SC)n1 | – | > 5 | ≥ 0.01 | ≥ 0.01 | ≥ 0.01
CSc1cc(C(=NO)c2cccc(N(C)C)c2)cc(SC)n1 | 14.7 (≈ 44.1 µM) | > 5 | ≥ 0.01 | ≥ 0.01 | ≥ 0.01
C=C(c1cc(SC)nc(SC)c1)c1ccc2c(ccn2C)c1 | – | 1.1 | 0.52 | 0.717 | 0.249
CSc1cc(C(=O)c2ccc(N(C)C)cc2)cc(SC)n1 | 1 (≈ 3.14 µM) | > 5 | 0.652 | 0.435 | 0.787
CSc1cc(C(O)c2ccc(N(C)C)nc2)cc(SC)n1 (stereo unspecified) | – | > 5 | ≥ 0.01 | ≥ 0.01 | ≥ 0.01
CSc1cc(C(=O)c2ccc3c(ccn3C)c2)cc(Cl)n1 | – | 2.4 | 0.388 | 0.49 | ≥ 0.01
C=C(c1cc(SC)nc(SC)c1)c1ccc2c(c1)c(C#N)cn2C | 46.3 (≈ 132 µM) | 0.4 | 0.579 | 0.604 | 0.587
C=C(c1ccc(OC)cc1)c1cc(Cl)nc(SC)c1 | 48.9 (≈ 168 µM) | 1.5 | 0.628 | 0.464 | 0.485
CSc1cc(C(=O)c2ccc(N(C)C)nc2)cc(SC)n1 | 47.1 (≈ 147 µM) | > 5 | ≥ 0.01 | ≥ 0.01 | ≥ 0.01

Structure (SMILES) | solubility thermodynamic at 72 h [1] [µg/mL] | IC50 [2] [µM] | IC50 (HeLa) [µM] | IC50 (HL-60) [µM] | IC50 (HT-29) [µM]
COc1ccc(C(=O)c2cc(Cl)nc(SC)c2)cc1 | – | > 5 | ≥ 10 | ≥ 10 | ≥ 10
CCOC(=O)C(O)(c1ccc(OC)cc1)c1cc(Cl)nc(SC)c1 (stereo unspecified) | – | > 5 | ≥ 0.01 | ≥ 0.01 | ≥ 0.01
CSc1cc(C(=NO)c2ccc(N(C)C)cc2)cc(SC)n1 | 1.1 (≈ 3.3 µM) | 2.1 | 0.269 | 0.213 | 0.781
CSc1cc(C(=O)c2ccc3c(c2)c(C=O)cn3C)cc(SC)n1 | 230 (≈ 646 µM) | > 5 | ≥ 0.01 | ≥ 0.01 | ≥ 0.01
CSc1cc(C(=NO)c2ccc3ccccc3c2)cc(SC)n1 | – | > 5 | ≥ 0.01 | ≥ 0.01 | ≥ 0.01
CSc1cc(/C=C\c2ccc3c(ccn3C)c2)cc(SC)n1 | – | > 5 | ≥ 0.01 | ≥ 0.01 | 0.633
C=C(c1cccc(N(C)C)c1)c1cc(SC)nc(SC)c1 | 2.4 (≈ 7.58 µM) | > 5 | ≥ 0.01 | ≥ 0.01 | ≥ 0.01
C=C(c1cc(SC)nc(SC)c1)c1ccc2c(c1)c(C(=O)O)cn2C | 103 (≈ 277 µM) | 4.7 | ≥ 0.01 | ≥ 0.01 | ≥ 0.01
C=C(c1cc(Cl)nc(SC)c1)c1ccc2c(c1)c(C(N)=O)cn2C | – | 2.3 | 0.082 | 0.044 | 0.038
C=C(c1cc(SC)nc(SC)c1)c1ccc2c(c1)c(C=O)cn2C | 7.6 (≈ 21.4 µM) | 1.2 | 0.064 | 0.303 | 0.573
COc1ccc(C(C)c2cc(SC)nc(SC)c2)cc1 (stereo unspecified) | – | > 5 | ≥ 10 | ≥ 10 | ≥ 10
COc1ccc(C(=NO)c2cc(Cl)nc(SC)c2)cc1 | 41.7 (≈ 135 µM) | 4.6 | 0.518 | 0.613 | ≥ 10
COc1ccc(/C=C\c2cc(SC)nc(SC)c2)cc1 | – | 3.8 | ≥ 0.01 | ≥ 0.01 | ≥ 0.01
CSc1cc(C(=O)c2ccc3c(ccn3C)c2)cc(SC)n1 | – | 1.7 | 0.233 | 0.222 | 0.549
CSc1cc(C(=NO)c2ccc3c(ccn3C)c2)cc(SC)n1 | – | 1 | 0.59 | 0.24 | 0.745
CSc1cc(C(=O)c2cccc(N(C)C)c2)cc(SC)n1 | 1.3 (≈ 4.08 µM) | > 5 | ≥ 0.01 | ≥ 0.01 | ≥ 0.01
C=C(c1ccc(N(C)C)cc1)c1cc(SC)nc(SC)c1 | 6.9 (≈ 21.8 µM) | 3.8 | 0.328 | 0.486 | 0.928
C=C(c1cc(SC)nc(SC)c1)c1ccc2c(c1)c(C(N)=O)cn2C | – | 2.4 | 0.601 | 0.223 | 0.276
CSc1cc(C(=NO)c2ccc3c(ccn3C)c2)cc(Cl)n1 | 14.8 (≈ 44.6 µM) | > 5 | 0.365 | 0.257 | ≥ 0.01
C=C(c1cc(Cl)nc(SC)c1)c1ccc2c(ccn2C)c1 | 12.3 (≈ 39.1 µM) | 0.3 | 0.176 | 0.416 | 0.511
